Measurements reported in patent US20210179578A1, “OX1 ANTAGONISTS” (Heptares Therapeutics Limited, priority 2017, published 2021).

What was measured:
[1] = target: T1, human OX1 receptor (Homo sapiens, UniProt O43613); test: [3H]-radioligand binding assay, OX1; set-up: made in house; host or cells: SF21 insect cells (baculovirus; P0 virus made in SF9); conditions: [3H]-radioligand binding, human OX1 membranes; read-out: pKi average OX1 (converted)
T1 sequence (O43613 1-425): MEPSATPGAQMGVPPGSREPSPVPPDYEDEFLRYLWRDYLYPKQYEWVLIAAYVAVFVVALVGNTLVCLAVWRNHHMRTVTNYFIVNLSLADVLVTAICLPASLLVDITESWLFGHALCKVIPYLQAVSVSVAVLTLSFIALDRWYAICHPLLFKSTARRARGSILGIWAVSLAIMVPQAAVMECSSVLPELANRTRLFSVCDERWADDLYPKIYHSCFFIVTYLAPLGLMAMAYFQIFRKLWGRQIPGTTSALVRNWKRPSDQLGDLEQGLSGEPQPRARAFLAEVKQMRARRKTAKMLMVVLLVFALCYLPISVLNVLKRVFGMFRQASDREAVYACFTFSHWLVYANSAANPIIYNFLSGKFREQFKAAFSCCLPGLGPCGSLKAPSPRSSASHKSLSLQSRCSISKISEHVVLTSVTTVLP
Method in brief: (§1)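 Membranes from baculovirus-infected SF21 cells expressing human OX1 (6.4 μg protein/well) or OX2 (1.4 μg/well) were incubated 90 min at rt in HEPES pH 7.4 saline buffer with a [3H]-benzothiadiazinone dioxide radioligand, then filtered and counted. NSB defined with 3.33 μM benzoxazolyl-diazepane methanone; Ki from IC50 by Cheng-Prusoff.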

[2] = target: T2, human OX2 receptor (Homo sapiens, UniProt O43614); test: [3H]-radioligand binding assay, OX2; set-up: made in house; host or cells: SF21 insect cells (baculovirus; P0 virus made in SF9); conditions: [3H]-radioligand binding, human OX2 membranes; read-out: pKi average OX2 (converted)
T2 sequence (O43614 1-444): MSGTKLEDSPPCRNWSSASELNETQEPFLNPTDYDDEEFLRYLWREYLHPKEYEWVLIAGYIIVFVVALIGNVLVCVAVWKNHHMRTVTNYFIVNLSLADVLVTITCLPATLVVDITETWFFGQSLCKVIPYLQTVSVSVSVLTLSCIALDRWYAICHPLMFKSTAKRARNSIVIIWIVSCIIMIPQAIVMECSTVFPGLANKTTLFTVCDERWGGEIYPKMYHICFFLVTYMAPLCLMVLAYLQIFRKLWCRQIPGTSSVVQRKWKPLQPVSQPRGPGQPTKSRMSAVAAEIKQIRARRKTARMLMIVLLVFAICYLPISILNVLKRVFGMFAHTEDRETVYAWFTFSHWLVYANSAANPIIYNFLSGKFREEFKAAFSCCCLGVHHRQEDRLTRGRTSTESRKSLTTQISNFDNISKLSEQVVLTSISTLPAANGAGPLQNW
Method in brief: as §1

In the case of Cc1ncc(C2CCc3c(F)cccc3N(Cc3c(F)cc(Br)cc3F)C2=O)cc1S(C)(=O)=O (single isomer, unassigned) [Example 39, 1-(4-bromo-2,6-difluorobenzyl)-6-fluoro-3-[6-methyl-5-(methylsulfonyl)pyridin-3-yl]-1,3,4,5-tetrahydro-2H-1-benzazepin-2-one], the Ki [1] is reported as 1.26 nM and the Ki [2] is reported as > 501 nM.
A Ki [1] of 0.398 nM and a Ki [2] of 100 nM were found for [2H]C([2H])([2H])Oc1cc(F)c(CN2C(=O)N(c3cnc(OC)c(C(C)(F)F)c3)CCc3c(F)cccc32)c(F)c1 [Example 6, 3-[5-(1,1-difluoroethyl)-6-methoxypyridin-3-yl]-1-{2,6-difluoro-4-[(^2H3)methyloxy]benzyl}-6-fluoro-1,3,4,5-tetrahydro-2H-1,3-benzodiazepin-2-one] in this work.
A Ki [1] of 0.794 nM and a Ki [2] of 63.1 nM were found for COc1ccc(CN2C(=O)N(c3cnc(OC)c(C(C)(F)F)c3)CCc3c(F)cccc32)c(F)c1 [Example 4, 3-[5-(1,1-difluoroethyl)-6-methoxypyridin-3-yl]-6-fluoro-1-(2-fluoro-4-methoxybenzyl)-1,3,4,5-tetrahydro-2H-1,3-benzodiazepin-2-one] in this work.
In the case of COCc1cc(F)c(CN2C(=O)N(c3cc(C(C)(F)F)c(OC)nc3OC)CCc3c(F)cccc32)c(F)c1 [Example 24, 3-[5-(1,1-difluoroethyl)-2,6-dimethoxypyridin-3-yl]-1-[2,6-difluoro-4-(methoxymethyl)benzyl]-6-fluoro-1,3,4,5-tetrahydro-2H-1,3-benzodiazepin-2-one], the Ki [1] is reported as 1 nM and the Ki [2] is reported as > 158 nM.
A Ki [1] of 0.631 nM and a Ki [2] of 50.1 nM were found for Cc1ncc(N2CCc3c(F)cccc3N(Cc3c(F)cc(Br)cc3F)C2=O)cc1C(C)(F)F [Example 32, 1-(4-bromo-2,6-difluorobenzyl)-3-[5-(1,1-difluoroethyl)-6-methylpyridin-3-yl]-6-fluoro-1,3,4,5-tetrahydro-2H-1,3-benzodiazepin-2-one] in this work.
